The experiment concerns the target T1, Chicken egg white lysozyme (CEWLZM) (Gallus gallus, UniProt P00698).
T1 construct: gene LYZ
Nature of the experiment: SPR kinetics, CEWLZM amine-coupled on MUA gold chip, TA […], PBS pH […]°C. It counts as binding. On the technique in general: In SPR one partner is held on a chip, and binding of the other changes the refractive index at the surface.

One may read the Kd as the equilibrium constant for the complex coming apart. The low end stands for a tighter complex, the high end for a looser complex.

T1 sequence (P00698 19-147): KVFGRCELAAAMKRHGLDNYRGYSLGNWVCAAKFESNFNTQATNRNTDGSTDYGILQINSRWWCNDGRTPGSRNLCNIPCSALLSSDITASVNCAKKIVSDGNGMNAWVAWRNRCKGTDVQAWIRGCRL

With `O=C(OC[C@H]1O[C@@H](OC(=O)c2cc(O)c(O)c(OC(=O)c3cc(O)c(O)c(O)c3)c2)[C@H](OC(=O)c2cc(O)c(O)c(OC(=O)c3cc(O)c(O)c(O)c3)c2)[C@@H](OC(=O)c2cc(O)c(O)c(OC(=O)c3cc(O)c(O)c(O)c3)c2)[C@@H]1OC(=O)c1cc(O)c(O)c(OC(=O)c2cc(O)c(O)c(O)c2)c1)c1cc(O)c(O)c(OC(=O)c2cc(O)c(O)c(O)c2)c1` [TA, tannic acid], binding was characterised by a dissociation constant (Kd) of 41.7 µM.

(Values after publication PMC11521726, “Surface plasmon resonance, molecular docking, and molecular dynamics simulation studies of lysozyme interaction with tannic acid” (Food Science & Nutrition, 2024).)
